Test results published in US20190350955A1, “METHODS AND PHARMACEUTICAL COMPOSITIONS FOR THE TREATMENT OF CARDIOMYOPATHIES” (INSERM (Institut National de la Sante et de la Recherche …, priority 2016, published 2019).

Tests used:
Assay type in all cases: in vivo, mouse
TAC mice = assay: Echocardiography after transverse aorta constriction (TAC); settings: NR enriched diet 400 mg/kg/day vs untreated TAC group
Method: Transverse aorta constriction was performed in 2 month-old male mice under anesthesia (ketamine 100 mg/kg, xylazin 16 mg/kg). Skin was opened above the sternum and the upper part of the sternum was cut on a length of 2 mm allowing the mouse to breath without the need of a ventilator. A surgical suture was passed under the aortic cross between the right brachiocephalic (innominate) artery and left common carotid artery and a 27-½ gauge blunt needle was placed parallel to the wall of the aortic cross as a calibrator. Two loose knots were tied around the aortic cross and the needle. […]
Echocardiography was performed on lightly anesthetized mice given isoflurane (induction with 2% isoflurane 100% O2. and maintained with 0.5% isoflurance 100% O2). Non-invasive measurements of left ventricular dimensions were evaluated using Doppler echocardiography (Vivid 7 Dimension/Vivid7 PRO; GE Medical Systems) with a probe ultrasound frequency range of 9-14 MHz. […] LV fractional shortening (FS) was calculated using the formula: (LVEDD−LVESD)/LVEDD×100. LV myocardial volume (LVV), LV end-diastolic volume (EDV), and end-systolic volume (ESV) were calculated using a half-ellipsoid model of the LV. From these volumes, LV ejection fraction (EF) was calculated using, the formula: (EDV−ESV)/EDV×100. H/R ratio was calculated by the formula (PWThd+IVSThd)/LVEDd.

SRF^HKO mice = assay: Echocardiography of SRF HKO mice on NR diet
Text: Transgenic mice. All experiments with animals conformed to the Directive 2010/63/EU of the European Parliament and were approved by the ethics committee Charles Darvin #5 (agreement 00369.01). SRF^HKO mice bear the tamoxifen-inducible α-MHC-MerCrMer transgene and the Siffloxed allele (Sf/Sf) as described previously (Parlakian et al. (2005). Temporally controlled onset of dilated cardiomyopathy through disruption of the SRF gene in adult heart. Journal 112, 2930-2939; Tritsch et al. (2013). An SRF/miR-1 axis regulates NCX1 and Annexin A5 protein levels in the normal and failing heart. Journal 98, 372-380). Transgenic mice have been bred for more than 20 generations in C57BL/6N background. The mice were housed in standard animal facility (CEF. Hôpital Pitié Salpétrière, agreement A-75-13-15, 75013 Paris), under a 12-h dark/light cycle. Tamoxifen (Sigma T5648) was administrated by i.p. injection at a dose of 0.7 mg diluted in 100 μl peanut oil at day (D) 0, D1 and D2. (Sf/Sf) littermates injected with tamoxifen at the same time than mutant were used as controls.
(§1) SRF^HKO and control (Sf/Sf) mice were administered either rodent maintenance SAFE A04 diet containing 3.10% crude fat. 16.10% crude proteins. 26% starch and 1.9% sugar (Scientific Animal Food Engineering, Paris, France) or SAFE # A04 diet supplemented with NR. NR was provided by Chromadex under brand name NIAGEN (Irvine Calif. USA). The soft pellets were manually prepared every 5 days by mixing 1.65 g of NR into 500 g of powdered SAFE A04 diet and 235 ml of water to reach 2.24 mg of NR/g (wet weight). Control diet was prepared in the same way omitting NR. Mice had ad libitum access to food and water. Mice (average body weight 31.3±0.82 g, no difference between groups) consumed an average of 6 g of soft food per day, reaching a daily intake of 450 mg NR/kg. No difference in food intake was observed between SRF^HKO and control mice.
Echocardiography was performed on lightly anesthetized mice given isoflurane (induction with 2% isoflurane 100% O2. and maintained with 0.5% isoflurance 100% O2). Non-invasive measurements of left ventricular dimensions were evaluated using Doppler echocardiography (Vivid 7 Dimension/Vivid7 PRO; GE Medical Systems) with a probe ultrasound frequency range of 9-14 MHz. The two-dimensionally guided time-motion recording mode (parasternal long-axis view) of the left ventricle (LV) provided the following measurements: diastolic and systolic septal (IVS) and posterior wall thicknesses (LVPW); internal end-diastolic (LVEDD) and end-systolic diameters (LVESD); and heart rate. Each set of measurements was obtained from the same cardiac cycle. At least 3 sets of measurements were obtained from 3 different cardiac cycles. LV fractional shortening (FS) was calculated using the formula: (LVEDD−LVESD)/LVEDD×100. LV myocardial volume (LVV), LV end-diastolic volume (EDV), and end-systolic volume (ESV) were calculated using a half-ellipsoid model of the LV. From these volumes, LV ejection fraction (EF) was calculated using, the formula: (EDV−ESV)/EDV×100. H/R ratio was calculated by the formula (PWThd+IVSThd)/LVEDd.

citrate synthase = assay: Citrate synthase activity in left ventricular myocardium; settings: SRF HKO left ventricular myocardium at D50, NR diet
Method: as §1, with “Mice (average body weight 31.3±0.82 g, no difference between groups) consumed an average of 6 g of soft food per day, reaching a daily intake of 450 mg NR/kg. No difference in food intake was observed between SRF^HKO and control mice.” left out
Frozen tissue samples were weighed, homogenized (Bertin Precellys 24) in ice-cold buffer (50 mg/ml) containing HEPES 5 mM (pH 8.7), EGTA 1 mM, DTT 1 mM and 0.1% Triton X-100. Citrate synthase (CS), activity was determined in homogenized ventricles as previously described (Kuznetsov et al. (2008). Analysis of mitochondrial function in situ in permeabilized muscle fibers, tissues and cells. Journal 3, 965-976). Activities of enzymes were determined by standard spectrophotometric assays. Briefly, for citrate synthase (CS), approximately 0.5 μg of protein were added in 1 ml of Buffer M (Trizma 100 mM (pH 8), 5,5′-dittiobis-(2-Nitrobenzenoic acid) 0.1 mM, Acetyl-CoA 0.3 mM, oxaloacetatic acid 0.5 mM) and the absorbance at 412 nm was measured during 3 min. […]

[1] = NR diet, echocardiography D45 to D47

NC(=O)c1ccc[n+]([C@@H]2O[C@H](CO)[C@@H](O)[C@H]2O)c1 [NR, nicotinamide riboside]
drop in LVEF triggered by TAC (TAC mice): limits | thickening of the interventricular septum (IVSTh) triggered by TAC (TAC mice): limits | LV ejection fraction (LVEF) (SRF^HKO mice; NR diet 0.22% from D5, echocardiography D45 to D47, ± S.D, non-treated SRF HKO 48.1, control mice 73.5): 64.8%±8.2 | LV contractile functions (LVEF and FS) (SRF^HKO mice; NR diet, D45 to D47): clearly protected | changes in stroke volume or cardiac output (SRF^HKO mice; NR diet, D45 to D47): not significant | dilatation of LV in systole and diastole (SRF^HKO mice; NR diet, D45 to D47): fully protected | reduction of the H/R ratio (eccentric remodeling) (SRF^HKO mice; NR diet, D45 to D47): fully prevented | thinning of the LV wall in systole and diastole (SRF^HKO mice; NR diet, D45 to D47, more efficiently at posterior wall than interventricular septum): reduced the thinning | LV mass index (SRF^HKO mice; [1]): did not induce any change | heart rate (SRF^HKO mice; [1]): did not induce any change | citrate synthase activity (citrate synthase): protected against the decline
